Source: US11648254B2 (Kumquat Biosciences Inc., priority 2021, dated 2023)
Like-named read-outs stand apart in the source and are kept apart here.

Experiments:
[1] = test system: NCI-H1975 cells (EGFR T790M L858R); assay: EGFR-SOS cellular inhibition assay (CellTiter-Glo, 3D); format: cell-based; settings: Homo sapiens
[2] = test system: MIA PaCa-2 cells (K-Ras G12C); assay: Ras-SOS cellular growth inhibition assay (CellTiter-Glo, 3D); format: cell-based; settings: Homo sapiens
In short: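 MIA PaCa-2 cells grown in ultra-low-attachment plates (3D) in DMEM/Ham's F12 with 10% FCS and 2.5% horse serum, treated the day after seeding with a 9-point 3-fold compound series for about 5 days. Viability by CellTiter-Glo luminescence; IC50 from four-parameter fit.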

SOS1 = SOS1 (Homo sapiens (Human), UniProt Q07889); assay: Ras-SOS interaction assay (HTRF); format: biochemical
SOS1, sequence (Q07889 564-1049): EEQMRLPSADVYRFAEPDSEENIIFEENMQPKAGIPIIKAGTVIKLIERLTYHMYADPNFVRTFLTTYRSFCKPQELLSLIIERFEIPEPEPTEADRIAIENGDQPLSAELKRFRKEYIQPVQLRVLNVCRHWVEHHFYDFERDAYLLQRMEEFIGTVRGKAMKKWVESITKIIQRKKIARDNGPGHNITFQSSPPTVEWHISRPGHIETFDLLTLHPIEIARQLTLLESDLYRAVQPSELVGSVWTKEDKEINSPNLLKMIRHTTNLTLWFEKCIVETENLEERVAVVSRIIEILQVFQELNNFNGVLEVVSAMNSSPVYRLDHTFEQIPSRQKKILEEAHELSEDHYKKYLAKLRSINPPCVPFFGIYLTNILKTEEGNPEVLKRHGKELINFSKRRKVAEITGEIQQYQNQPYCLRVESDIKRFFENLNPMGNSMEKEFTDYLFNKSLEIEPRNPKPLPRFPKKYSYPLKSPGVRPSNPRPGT

[3] = 120 h, NCI-H1975, 3D proliferation, about 5 days, read-out: Bio-Cell-Prolif-3D (H1975 IC50)
[4] = NCI-H1975, EGFR T790M L858R, read-out: IC50 in inhibiting growth of NCI-H1975 cell line
[5] = MIA PaCa-2, 120 h, MIA PaCa-2, 3D proliferation, about 5 days, read-out: Bio-Cell-Prolif-3D (MiaPaca2 IC50)
[6] = MIA PaCa-2, MIA PaCa-2, read-out: IC50 in inhibiting MIA PaCa-2 cell growth
[7] = K-RasG13D utilized, read-out: IC50 inhibition of SOS
[8] = K-RasG13D, read-out: IC50 value against SOS1

CC(C)N1CCC(C(F)(F)c2cccc([C@@H](C)Nc3ncnc4nc(Cl)c(N5CCN(C(C)C)CC5)cc34)c2F)CC1 [Compound 224, (R)-7-chloro-N-(1-(3-(difluoro(1-isopropylpiperidin-4-yl)methyl)-2-fluorophenyl)ethyl)-6-(4-isopropylpiperazin-1-yl)pyrido[2,3-d]pyrimidin-4-amine]
IC50 [1, 3]: ≤ 1 µM
IC50 [1, 4]: < 0.5 µM
IC50 [2, 5]: ≤ 1 µM
IC50 [2, 6]: < 0.5 µM
IC50 (SOS1; [7]): < 0.1 µM
IC50 (SOS1; [8]): < 0.05 µM

Cc1nc(N[C@H](C)c2cccc(C(F)(F)C3CCN(C(C)C)CC3)c2F)c2cc(N3CCN(C(C)C)CC3)c(Cl)nc2n1 [Compound 223, (R)-7-chloro-N-(1-(3-(difluoro(1-isopropylpiperidin-4-yl)methyl)-2-fluorophenyl)ethyl)-6-(4-isopropylpiperazin-1-yl)-2-methylpyrido[2,3-d]pyrimidin-4-amine]
IC50 [1, 3]: ≤ 1 µM
IC50 [1, 4]: < 0.5 µM
IC50 [2, 5]: ≤ 1 µM
IC50 [2, 6]: < 0.5 µM
IC50 (SOS1; [7]): < 0.1 µM
IC50 (SOS1; [8]): < 0.05 µM

Cc1nc(N[C@H](C)c2cccc(C(F)F)c2F)c2cc(C3(C#N)CC3)c(OC[C@H]3CCCN3C)nc2n1 [Compound 235, 1-(4-(((R)-1-(3-(difluoromethyl)-2-fluorophenyl)ethyl)amino)-2-methyl-7-(((R)-1-methylpyrrolidin-2-yl)methoxy)pyrido [2,3-d]pyrimidin-6-yl)cyclopropane-1-carbonitrile]
IC50 [1, 3]: ≤ 1 µM
IC50 [1, 4]: < 0.5 µM
IC50 [2, 5]: ≤ 1 µM
IC50 (SOS1; [7]): < 0.1 µM
IC50 (SOS1; [8]): < 0.05 µM

Cc1nc(N[C@H](C)c2cccc(C(F)F)c2F)c2cc(C3CCN(C(C)C)CC3)c(OC3CNC3)nc2n1 [Compound 340, (R)-7-(azetidin-3-yloxy)-N-(1-(3-(difluoromethyl)-2-fluorophenyl)ethyl)-6-(1-isopropylpiperidin-4-yl)-2-methylpyrido[2,3-d]pyrimidin-4-amine]
IC50 [1, 3]: 1 to 10 µM
IC50 [2, 5]: 1 to 10 µM
IC50 (SOS1; [7]): < 0.1 µM
IC50 (SOS1; [8]): < 0.05 µM

CC(C)N1CCN(c2cc3c(N[C@H](C)c4cccc(C(F)F)c4F)ncnc3nc2OC2COC2)CC1 [Compound 413, (R)-N-(1-(3-(difluoromethyl)-2-fluorophenyl)ethyl)-6-(4-isopropylpiperazin-1-yl)-7-(oxetan-3-yloxy)pyrido[2,3-d] pyrimidin-4-amine]
IC50 [1, 3]: ≤ 1 µM
IC50 [1, 4]: < 0.5 µM
IC50 [2, 5]: ≤ 1 µM
IC50 [2, 6]: < 0.5 µM
IC50 (SOS1; [7]): < 0.1 µM
IC50 (SOS1; [8]): < 0.05 µM

COc1nc2nc(C)nc(N[C@H](C)c3cccc(C(F)(F)CO)c3)c2cc1N1CCN(C(C)C)CC1 [Compound 345, (R)-2,2-difluoro-2-(3-(1-((6-(4-isopropylpiperazin-1-yl)-7-methoxy-2-methylpyrido[2,3-d]pyrimidin-4-yl)amino)ethyl)phenyl)ethan-1-ol]
IC50 [1, 3]: ≤ 1 µM
IC50 [1, 4]: < 0.5 µM
IC50 [2, 5]: ≤ 1 µM
IC50 [2, 6]: < 0.5 µM
IC50 (SOS1; [7]): < 0.1 µM
IC50 (SOS1; [8]): < 0.05 µM

CCN1CCC(c2cc3c(N[C@H](C)c4cccc(C(F)F)c4F)nc(C)nc3nc2OCCN(C)C)CC1 [Compound 399, (R)-N-(1-(3-(difluoromethyl)-2-fluorophenyl)ethyl)-7-(2-(dimethylamino)ethoxy)-6-(1-ethylpiperidin-4-yl)-2-methylpyrido[2,3-d] pyrimidin-4-amine]
IC50 [1, 3]: ≤ 1 µM
IC50 [2, 5]: 1 to 10 µM
IC50 (SOS1; [7]): < 0.1 µM
IC50 (SOS1; [8]): < 0.05 µM

Cc1nc(N[C@H](C)c2cccc(C(F)(F)F)c2C)c2cc(C3CCS(=O)(=O)CC3)c(Cl)nc2n1 [Compound 388, (R)-4-(7-chloro-2-methyl-4-((1-(2-methyl-3-(trifluoromethyl)phenyl)ethyl)amino)pyrido[2,3-d]pyrimidin-6-yl)tetrahydro-2H-thiopyran 1,1-dioxide]
IC50 [1, 3]: ≤ 1 µM
IC50 [1, 4]: < 0.5 µM
IC50 [2, 5]: ≤ 1 µM
IC50 [2, 6]: < 0.5 µM
IC50 (SOS1; [7]): < 0.1 µM
IC50 (SOS1; [8]): < 0.05 µM
